Tests used:
[1] = tested on: A549-ACE2; experiment: drug-induced phospholipidosis relative to tamoxifen; higher = more phospholipidosis
[2] = tested on: A549-ACE2 infected with SARS-CoV-2; experiment: cell count relative to DMSO; higher = less toxic; settings: 24 h
[3] = tested on: Caco-2; experiment: relative viability EC50 (midpoint between 100% and the lowest measured viability); higher = less toxic; settings: 72 h
[4] = tested on: HepG2; experiment: as above; settings: 72 h
[5] = tested on: U2OS; experiment: as above; settings: 72 h
[6] = tested on: Calu-3; experiment: as above; settings: 72 h
[7] = tested on: A549-ACE2 infected with SARS-CoV-2; experiment: morphology score (similarity to uninfected cells); higher = more like uninfected cells; settings: 24 h
[8] = tested on: A549-ACE2 infected with SARS-CoV-2; experiment: SARS-CoV-2 infection rate relative to DMSO; higher = more infection; settings: 24 h
[9] = tested on: Caco-2; experiment: drug sensitivity score (DSS) for viability; higher = more toxic; extreme values may be limits of the assay; settings: 72 h
[10] = tested on: HepG2; experiment: as above; settings: 72 h
[11] = tested on: U2OS; experiment: as above; settings: 72 h
[12] = tested on: Calu-3; experiment: as above; settings: 72 h
[13] = tested on: Caco-2; experiment: cell viability relative to DMSO; higher = less toxic; settings: 72 h
[14] = tested on: HepG2; experiment: as above; settings: 72 h
[15] = tested on: U2OS; experiment: as above; settings: 72 h
[16] = tested on: Calu-3; experiment: as above; settings: 72 h
[17] = tested on: Vero E6; experiment: relative viability EC50 (midpoint between 100% and the lowest measured viability); higher = less toxic; settings: 72 h
[18] = tested on: Vero E6; experiment: drug sensitivity score (DSS) for viability; higher = more toxic; extreme values may be limits of the assay; settings: 72 h
[19] = tested on: Vero E6; experiment: cell viability relative to DMSO; higher = less toxic; settings: 72 h

OCCN1C[C@H](O)[C@@H](O)[C@H](O)[C@H]1CO [miglitol]
drug-induced phospholipidosis [%], [1]
Settings	0.3 µM	0.833333 µM	3.33333 µM	6.66667 µM	10 µM	30 µM
24 h	3.38	-3.48	-1.06	-1.04	-2.08	-1.27
48 h	2.53	-2.84	1.36	1.25	2.47	2.29
72 h	3.37	-2.2	1.06	-0.466	0.978	2.7

Settings	SARS-CoV-2 infection rate, [8] [%]	cell count, [2] [%]	cell viability, [13] [%]	cell viability, [14] [%]	cell viability, [15] [%]	cell viability, [16] [%]	morphology score, [7]
1 nM	–	–	98.8	94.6	105	97.8	–
10 nM	–	–	99.2	114	99	95.7	–
100 nM	–	–	96.1	89.6	102	95.1	–
0.3 µM	94	106	–	–	–	–	0.36
1000 nM	–	–	101	103	98.5	110	–
3 µM	102	100	–	–	–	–	0.01
10 µM	103	100	–	–	–	–	0.02
10000 nM	–	–	94.7	101	103	96.2	–
30 µM	111	89	–	–	–	–	-0.07

Settings	drug sensitivity score	relative viability EC50 [µM]
[3]	–	> 10
[4]	–	> 10
[5]	–	> 10
[6]	–	> 10
[9]	0	–
[10]	0	–
[11]	0	–
[12]	0	–

c1cnc(N2CCN(Cc3ccc4c(c3)OCO4)CC2)nc1 [piribedil]
drug-induced phospholipidosis [%], [1]
Settings	0.3 µM	0.833333 µM	3.33333 µM	6.66667 µM	10 µM	30 µM
24 h	0.73	-0.78	-1.88	-1.98	-0.73	4.07
48 h	1.04	-0.48	-0.16	0.15	0.48	5.06
72 h	3.05	-0.292	-0.287	2.2	1.92	7.77

Settings	SARS-CoV-2 infection rate, [8] [%]	cell count, [2] [%]	cell viability, [13] [%]	cell viability, [14] [%]	cell viability, [15] [%]	cell viability, [16] [%]	cell viability, [19] [%]	morphology score, [7]
1 nM	–	–	106	98.9	104	110	100	–
10 nM	–	–	96.7	112	98.5	98	105	–
100 nM	–	–	95.8	98.9	103	99.3	100	–
0.3 µM	109	98	–	–	–	–	–	-0.23
1000 nM	–	–	92.9	107	98	89.5	98.1	–
3 µM	104	96	–	–	–	–	–	-0.1
10 µM	99	97	–	–	–	–	–	-0.05
10000 nM	–	–	90.3	102	99.9	102	94.4	–
30 µM	88	104	–	–	–	–	–	0.26

Settings	drug sensitivity score	relative viability EC50 [µM]
[3]	–	> 10
[4]	–	> 10
[5]	–	> 10
[6]	–	> 10
[9]	0	–
[10]	0	–
[11]	0	–
[12]	0	–
[17]	–	> 10
[18]	0	–

Cc1ccc2c(c1)[C@H]1CN(C)CC[C@H]1N2 [stobadine]
Settings	drug sensitivity score	relative viability EC50 [µM]
[3]	–	> 10
[4]	–	> 10
[5]	–	> 10
[6]	–	> 10
[9]	0	–
[10]	0	–
[11]	0	–
[12]	0	–
[17]	–	> 10
[18]	0	–

cell viability [%]
Settings	[13]	[14]	[15]	[16]	[19]
1 nM	96.5	107	100	97.2	101
10 nM	91.9	110	98.7	116	102
100 nM	92.2	97.2	101	93	99.7
1000 nM	96	97.4	99.6	94.5	103
10000 nM	95.8	95.8	101	102	94.1

C[C@H](CCC(=O)NCCS(=O)(=O)O)[C@H]1CC[C@H]2[C@@H]3[C@H](O)C[C@@H]4C[C@H](O)CC[C@]4(C)[C@H]3C[C@H](O)[C@]12C [taurocholate]
Settings	drug sensitivity score	relative viability EC50 [µM]
[3]	–	> 10
[4]	–	> 10
[5]	–	> 10
[6]	–	> 10
[9]	0	–
[10]	0	–
[11]	0	–
[12]	0	–
[17]	–	> 10
[18]	0	–

cell viability [%]
Settings	[13]	[14]	[15]	[16]	[19]
1 nM	110	105	100	103	104
10 nM	86.9	74	98.9	99	106
100 nM	104	99.8	101	109	107
1000 nM	87.2	108	98.9	102	110
10000 nM	92.2	98.4	99.2	96.3	95

O=S1(=O)CCN(CN2CCS(=O)(=O)NC2)CN1 [taurolidine]
Settings	drug sensitivity score	relative viability EC50 [µM]
[3]	–	> 10
[4]	–	> 10
[5]	–	> 10
[6]	–	> 10
[9]	0.2	–
[10]	0	–
[11]	0	–
[12]	0	–
[17]	–	> 10
[18]	0	–

cell viability [%]
Settings	[13]	[14]	[15]	[16]	[19]
1 nM	102	106	97.3	99.8	114
10 nM	118	89.8	98.3	95.2	99.7
100 nM	104	104	95.8	97.6	101
1000 nM	96.6	99.2	103	92.7	97.5
10000 nM	87.9	97.2	98.7	94.4	99.4

C[N+]1(C)[C@@H]2C[C@@H](OC(=O)C(O)(c3cccs3)c3cccs3)C[C@H]1[C@@H]1O[C@@H]12 [tiotropium]
Settings	drug sensitivity score	relative viability EC50 [µM]
[3]	–	> 10
[4]	–	> 10
[5]	–	> 10
[6]	–	> 10
[9]	0	–
[10]	0	–
[11]	0	–
[12]	0	–
[17]	–	> 10
[18]	0	–

cell viability [%]
Settings	[13]	[14]	[15]	[16]	[19]
1 nM	105	102	93.4	102	103
10 nM	100	93.9	94	98.7	98.6
100 nM	101	98.8	95.3	96.4	101
1000 nM	99.5	99.4	96.8	95.2	95.9
10000 nM	104	104	108	108	102

COc1ccc(/C=C/C(=O)O)cc1 [trans-4-methoxycinnamic-acid]
Settings	drug sensitivity score	relative viability EC50 [µM]
[3]	–	> 10
[4]	–	> 10
[5]	–	> 10
[6]	–	> 10
[9]	0	–
[10]	0	–
[11]	0	–
[12]	0	–
[17]	–	> 10
[18]	0	–

cell viability [%]
Settings	[13]	[14]	[15]	[16]	[19]
1 nM	95.1	106	101	103	99.3
10 nM	99.6	92	96.3	92.2	102
100 nM	88.7	100	102	108	98.1
1000 nM	100	91.7	98.6	98	103
10000 nM	88.3	96.3	97.5	98.8	97.7

O=C(O[C@H]1C[C@H]2CC[C@@H](C1)[N+]21CCCC1)C(O)(c1ccccc1)c1ccccc1 [trospium]
Settings	drug sensitivity score	relative viability EC50 [µM]
[3]	–	> 10
[4]	–	> 10
[5]	–	> 10
[6]	–	> 10
[9]	0	–
[10]	0	–
[11]	0	–
[12]	0	–
[17]	–	> 10
[18]	0	–

cell viability [%]
Settings	[13]	[14]	[15]	[16]	[19]
1 nM	92.8	98.3	95.7	101	95.6
10 nM	97.1	93.8	97.5	101	99.5
100 nM	94.7	107	101	97.2	93
1000 nM	98.3	94.8	99.1	98.2	95.3
10000 nM	99.9	108	88.9	94.3	102

O=c1cc[nH]c(=O)[nH]1 [uracil]
Settings	drug sensitivity score	relative viability EC50 [µM]
[3]	–	> 10
[4]	–	> 10
[5]	–	> 10
[6]	–	> 10
[9]	0	–
[10]	0	–
[11]	0	–
[12]	0	–
[17]	–	> 10
[18]	0	–

cell viability [%]
Settings	[13]	[14]	[15]	[16]	[19]
1 nM	91.5	98.6	91.7	91.8	96.2
10 nM	90.6	94	98.7	95.2	88.4
100 nM	91.3	99.6	94.8	93	91.8
1000 nM	93.8	102	102	94.6	89.5
10000 nM	98.5	117	103	95.6	112

CC[C@]12CCCN3CCc4c(n(c5ccccc45)C(=O)C1)[C@@H]32 [vinburnine]
Settings	drug sensitivity score	relative viability EC50 [µM]
[3]	–	> 10
[4]	–	1.37
[5]	–	> 10
[6]	–	> 10
[9]	0.4	–
[10]	6.8	–
[11]	1.2	–
[12]	0	–
[17]	–	> 10
[18]	0.4	–

cell viability [%]
Settings	[13]	[14]	[15]	[16]	[19]
1 nM	94.4	93.6	94.2	96.8	103
10 nM	98.5	89.9	97.4	97.4	96.6
100 nM	106	102	96.7	93.7	100
1000 nM	114	78.7	95.6	97.7	96.9
10000 nM	78.6	32.2	79.3	88.8	86.2

C[C@@H](c1ncncc1F)[C@](O)(Cn1cncn1)c1ccc(F)cc1F [voriconazole]
Settings	drug sensitivity score	relative viability EC50 [µM]
[3]	–	> 10
[4]	–	> 10
[5]	–	> 10
[6]	–	> 10
[9]	0	–
[10]	0	–
[11]	0	–
[12]	0	–
[17]	–	> 10
[18]	0	–

cell viability [%]
Settings	[13]	[14]	[15]	[16]	[19]
1 nM	101	100	103	92.4	98.8
10 nM	92.5	106	101	97.5	101
100 nM	102	86.9	97.6	92.4	97.8
1000 nM	85.6	107	97.4	99.8	108
10000 nM	110	122	109	110	105

O=C[C@H](O)[C@@H](O)[C@H](O)CO [xylose]
Settings	drug sensitivity score	relative viability EC50 [µM]
[3]	–	> 10
[4]	–	> 10
[5]	–	> 10
[6]	–	> 10
[9]	0	–
[10]	0	–
[11]	0	–
[12]	0.3	–
[17]	–	> 10
[18]	0	–

cell viability [%]
Settings	[13]	[14]	[15]	[16]	[19]
1 nM	94	106	95.1	104	96.7
10 nM	94.3	101	95.3	93	96.1
100 nM	94.2	101	94.5	98.4	99.4
1000 nM	90.4	98	96.4	97.9	94.3
10000 nM	92.7	96.8	96.3	85.4	92.6

N=C(N)NC(=O)c1cnn(-c2cccc3ncccc23)c1C1CC1 [zoniporide]
Settings	drug sensitivity score	relative viability EC50 [µM]
[3]	–	> 10
[4]	–	> 10
[5]	–	> 10
[6]	–	> 10
[9]	0	–
[10]	0	–
[11]	0	–
[12]	0	–
[17]	–	> 10
[18]	0	–

cell viability [%]
Settings	[13]	[14]	[15]	[16]	[19]
1 nM	89.6	89.9	98.8	99.8	92.7
10 nM	91.8	99.2	101	95.1	102
100 nM	101	105	104	93.8	94.9
1000 nM	102	103	100	94.5	97.5
10000 nM	95	101	98.6	99.6	104

Source: the supplement of paper PMC13380429
